# From patent US9453024B2, “Polymorphs of darunavir” (MAPI PHARMA LTD., priority 2009, dated 2016)
# Where two headings read alike, the source gives them in different places.
# Key:
# [1] = Particle size distribution and surface area; type: physicochemical
# Protocol: Micronized darunavir dimethylsulfoxide solvate was prepared from the non-micronized form by milling using a jet mill (Super fine vortex Mill™).
# [2] = Aqueous solubility in buffers, 24 h shaking at 25° C., HPLC; type: physicochemical; conditions: 24 hours at 25° C.; for solubility at 24 h: 25 °C, thermodynamic from solid
# Protocol: The aqueous solubility of the tetrahydrofuran solvate of darunavir of the present invention was measured. Specifically, about 10 mg of the compound was accurately weighed into a 4 ml clear glass vial followed by the addition of 2.5 ml buffer (at different pH) to the vial. The vial was then mounted on a Thermomixer and was kept shaking for 24 hours at 25° C. The solution was filtered through 0.45 μm PTFE filter. The pH value and concentration of the filtrate were checked by pH meter and HPLC (Agilent 1200; Column: Zorbax SB C18, 4.6 mm×150 mm ID×5 μm; Profile of mobile phase: t=0 water 70, ACN 30; t=15,20 water 0, ACN 100; Column temperature 30° C.; Mobile rate 1.0 mL/min; Detector wavelength 265 nm; The typical retention time of Darunavir is 7.7 min), respectively.
# (§1) The aqueous solubility of the dimethylsulfoxide solvate of darunavir of the present invention was measured. Specifically, about 10 mg of the compound was accurately weighed into a 4 ml clear glass vial followed by the addition of 2.5 ml buffer (at different pH) to the vial. The vial was then mounted on a Thermomixer and kept shaking for 24 hours at 25° C. The solution was filtered through 0.45 μm PTFE filter. The pH value and concentration of the filtrate were checked by pH meter and HPLC, respectively.
# as §1, with “Specifically,” for “The aqueous solubility of the dimethylsulfoxide solvate of darunavir of the present invention was measured. Specifically,”, “respectively. The results are summarized in Table 11 and in FIG. 8 panel C.” for “respectively.”
# Bulk density = type: physicochemical
# [3] = Hygroscopicity (DVS) from 0% to 90%; type: physicochemical; conditions: for weight gain from 0% to 90% (DVS) / hygroscopicity (in words): 25° C.; for hygroscopicity (in words): DVS 0% to 90%
# Protocol: About 10 mg of the tetrahydrofuran solvate form of the present invention were used to test the hygroscopicity (DVS) from 0% to 90% according to the details on Table 2.
# About 10 mg of the dimethylsulfoxide solvate form of the present invention were used to test the hygroscopicity (DVS) from 0% to 90% according to the details on Table 2 hereinabove.
# The hygroscopicities of the Darunavir forms of the present invention were compared to the hygroscopicity of Darunavir ethanolate API.
# [4] = water at 20° C.; cited from earlier work
# [5] = pH 1.2 buffer, footnote *degraded
# [6] = listed as dimethylsulfoxide solvate form
# [7] = listed as tetrahydrofuran solvate form
structure (smiles),measurement,setting,value
"CC(C)CN(C[C@@H](O)[C@H](Cc1ccccc1)NC(=O)O[C@H]1CO[C@H]2OCC[C@H]21)S(=O)(=O)c1ccc(N)cc1 [[(1S,2R)-3-[[(4-aminophenyl)sulfonyl](2-methylpropyl)amino]-2-hydroxy-1-(phenylmethyl)propyl]-carbamic acid (3R,3aS,6aR)-hexahydrofuro[2,3-b]furan-3-yl ester]",Dissolution,"15 min, 600 mg/vessel, 75 rpm, 900 mL 2.0% Tween-20 in 0.05M sodium phosphate buffer pH 3.0, 37° C., listed as Micronized",89.30%
same,Dissolution,"30 min, same medium, listed as Micronized",94.72%
same,Dissolution,"45 min, same medium, listed as Micronized",95.98%
same,Dissolution,"60 min, same medium, listed as Micronized",94.95%
same,D10,[1]; listed as Micronized,1.5 μm
same,D50,[1]; listed as Micronized,3.7 μm
same,D90,[1]; listed as Micronized,7.2 μm
same,Specific surface area,[1]; listed as Micronized,2.6 m^2/g
same,Surface weighted mean,[1]; listed as Micronized,2.3 μm
same,Vol. weighted mean,[1]; listed as Micronized,4.1 μm
"CC(C)CN(C[C@@H](O)[C@H](Cc1ccccc1)NC(=O)O[C@H]1CO[C@H]2OCC[C@H]21)S(=O)(=O)c1ccc(N)cc1 [amorphous darunavir, [(1S,2R)-3-[[(4-aminophenyl)sulfonyl](2-methylpropyl)amino]-2-hydroxy-1-(phenylmethyl)propyl]-carbamic acid (3R,3aS,6aR)-hexahydrofuro[2,3-b]furan-3-yl ester]",Solubility,[2]; [5],1.73* mg/ml
same,Solubility,[2]; pH 4.5 buffer,0.27 mg/mL
same,Solubility,[2]; pH 6.8 buffer,0.24 mg/mL
same,Solubility,[2]; pH 7.4 buffer,0.23 mg/mL
same,Solubility,[2]; water,0.27 mg/mL
same,bulk density,Bulk density,0.445 ± 0.012 g/mL
same,weight gain from 0% to 90% (DVS),[3],2.617%
same,hygroscopicity (in words),[3],hygroscopic
"CC(C)CN(C[C@@H](O)[C@H](Cc1ccccc1)NC(=O)O[C@H]1CO[C@H]2OCC[C@H]21)S(=O)(=O)c1ccc(N)cc1 [darunavir dimethylsulfoxide solvate, [(1S,2R)-3-[[(4-aminophenyl)sulfonyl](2-methylpropyl)amino]-2-hydroxy-1-(phenylmethyl)propyl]-carbamic acid (3R,3aS,6aR)-hexahydrofuro[2,3-b]furan-3-yl ester]",Solubility,[2]; [5],1.36* mg/ml
same,Solubility,[2]; pH 4.5 buffer,0.22 mg/mL
same,Solubility,[2]; pH 6.8 buffer,0.21 mg/mL
same,Solubility,[2]; pH 7.4 buffer,0.20 mg/mL
same,Solubility,[2]; water,0.23 mg/mL
same,Dissolution,"15 min, 600 mg/vessel, 75 rpm, 900 mL 2.0% Tween-20 in 0.05M sodium phosphate buffer pH 3.0, 37° C., listed as Non-micronized",56.83%
same,Dissolution,"30 min, same medium, listed as Non-micronized",81.61%
same,Dissolution,"45 min, same medium, listed as Non-micronized",88.06%
same,Dissolution,"60 min, same medium, listed as Non-micronized",90.45%
same,D10,[1]; listed as Non-micronized,3.9 μm
same,D50,[1]; listed as Non-micronized,29.2 μm
same,D90,[1]; listed as Non-micronized,99.7 μm
same,Specific surface area,[1]; listed as Non-micronized,0.9 m^2/g
same,Surface weighted mean,[1]; listed as Non-micronized,6.5 μm
same,Vol. weighted mean,[1]; listed as Non-micronized,42.0 μm
same,bulk density,Bulk density,0.472 ± 0.008 g/mL
same,denser when compared to the bulk density of the known ethanolate form,Bulk density,approximately 26%
same,weight gain from 0% to 90% (DVS),[3],0.9431%
same,weight gain from 0% to 90% (DVS),[3]; [6],0.9431%
same,hygroscopicity (in words),[3],only slightly hygroscopic
same,hygroscopicity (in words),[3]; [6],only slightly hygroscopic
"CC(C)CN(C[C@@H](O)[C@H](Cc1ccccc1)NC(=O)O[C@H]1CO[C@H]2OCC[C@H]21)S(=O)(=O)c1ccc(N)cc1 [darunavir ethanolate, [(1S,2R)-3-[[(4-aminophenyl)sulfonyl](2-methylpropyl)amino]-2-hydroxy-1-(phenylmethyl)propyl]-carbamic acid (3R,3aS,6aR)-hexahydrofuro[2,3-b]furan-3-yl ester, reference compound]",bulk density,"Bulk density; known ethanolate form, comparator",0.374 ± 0.009 g/mL
same,solubility in water,[4],approximately 0.15 mg/mL
same,weight gain from 0% to 90% (DVS),[3],2.180%
same,hygroscopicity (in words),[3],hygroscopic
same,loss of solvate during the desorption measurement,[3]; DVS desorption,lost the solvate ethanol molecules
"CC(C)CN(C[C@@H](O)[C@H](Cc1ccccc1)NC(=O)O[C@H]1CO[C@H]2OCC[C@H]21)S(=O)(=O)c1ccc(N)cc1 [darunavir tetrahydrofuran solvate, [(1S,2R)-3-[[(4-aminophenyl)sulfonyl](2-methylpropyl)amino]-2-hydroxy-1-(phenylmethyl)propyl]-carbamic acid (3R,3aS,6aR)-hexahydrofuro[2,3-b]furan-3-yl ester]",solubility at 24 h,"[2]; pH 1.2 buffer, pH 1.2, simulated gastric fluid, footnote *degraded",1470 µg/mL
same,solubility at 24 h,"[2]; pH 4.5 buffer, pH 4.5, aqueous buffer",270 µg/mL
same,solubility at 24 h,"[2]; pH 6.8 buffer, pH 6.8, aqueous buffer",240 µg/mL
same,solubility at 24 h,"[2]; pH 7.4 buffer, pH 7.4, aqueous buffer",230 µg/mL
same,solubility at 24 h,[2]; water,270 µg/mL
same,bulk density,Bulk density,0.431 ± 0.007 g/mL
same,weight gain from 0% to 90% (DVS),[3],1.366%
same,weight gain from 0% to 90% (DVS),[3]; [7],1.366%
same,hygroscopicity (in words),[3],only slightly hygroscopic
same,hygroscopicity (in words),[3]; [7],slightly hygroscopic
